In brackets after ≈: the same amount, converted by molar mass.
Legend:
[1] = target: T1, Soybean lipoxygenase (Type I-B) (Glycine max, UniProt P08170); assay: In vitro LOX inhibition assay; format: biochemical; details: for inhibition at 25 µM / inhibition at 50 µM / inhibition at 100 µM: read-out: Anti-LOX Activity (%); for IC50: sodium linoleate substrate, tris buffer pH 9, read-out: IC50 (µM), in vitro lipoxygenase inhibitory activity
T1 construct: purchased Merck (KGaA, Darmstadt, Germany)
T1 sequence (P08170 1-839): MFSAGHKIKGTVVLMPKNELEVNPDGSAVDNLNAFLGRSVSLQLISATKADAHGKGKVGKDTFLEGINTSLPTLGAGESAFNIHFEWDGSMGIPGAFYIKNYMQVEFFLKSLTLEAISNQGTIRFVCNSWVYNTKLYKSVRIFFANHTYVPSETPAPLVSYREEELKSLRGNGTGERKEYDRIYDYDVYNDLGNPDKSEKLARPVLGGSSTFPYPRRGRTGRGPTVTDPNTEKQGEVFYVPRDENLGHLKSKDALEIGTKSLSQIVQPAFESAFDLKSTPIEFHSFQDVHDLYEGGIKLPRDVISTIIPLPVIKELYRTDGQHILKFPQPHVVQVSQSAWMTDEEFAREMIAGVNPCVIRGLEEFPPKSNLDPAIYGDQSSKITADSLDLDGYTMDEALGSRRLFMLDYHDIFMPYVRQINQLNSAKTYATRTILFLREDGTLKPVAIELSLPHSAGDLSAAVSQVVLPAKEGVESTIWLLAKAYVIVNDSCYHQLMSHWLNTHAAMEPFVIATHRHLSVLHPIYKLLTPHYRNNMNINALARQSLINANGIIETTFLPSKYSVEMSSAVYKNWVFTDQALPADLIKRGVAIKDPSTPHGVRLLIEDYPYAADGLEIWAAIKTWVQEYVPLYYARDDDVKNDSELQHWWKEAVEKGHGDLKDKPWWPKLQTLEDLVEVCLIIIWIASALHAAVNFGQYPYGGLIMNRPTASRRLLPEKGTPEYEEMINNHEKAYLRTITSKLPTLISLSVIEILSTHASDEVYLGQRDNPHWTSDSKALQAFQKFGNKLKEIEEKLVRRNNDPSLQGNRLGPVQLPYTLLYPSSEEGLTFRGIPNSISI
Source text: Soybean lipoxygenase (Type I-B) is a very often used enzyme for the investigation of anti-inflammatory properties of compounds [38]. The LOX inhibition assay measures the rate of oxidation of linoleic acid by lipoxygenase, which results in the formation of a colorless product that can be detected spectrophotometrically. This enzyme catalyzes the conversion of linoleic acid into hydroperoxy fatty acids and results in increased absorbance at 234 nm. The tested compounds dissolved in DMSO were incubated at room temperature with sodium linoleate (3 mM in tris buffer pH = 9) and enzyme solution (5 × 10^3 units/mL in saline). The activity for each tested compound was presented as IC50 value ± standard deviation (SD) of three independent measurements.

S. aureus (isolate) = assay: Microdilution MIC/MMC with resazurin; format: cell-based, Staphylococcus aureus; details: for MIC: Staphylococcus aureus
Experimental: The antimicrobial activity of PCH-1 and PCH-2 was tested against 13 microorganisms. The experiment included four standard strains, Staphylococcus aureus ATCC 6538, Bacillus subtilis ATCC 6633, Proteus mirabilis ATCC 12453, and Pseudomonas aeruginosa ATCC 27853; five isolates, Staphylococcus aureus, Escherichia coli, Salmonella enterica, Klebsiella pneumoniae, and Bacillus subtilis; and one probiotic strain Lactobacillus plantarum 299V. Additionally, three fungal strains were tested, including one standard strain, Candida albicans ATCC 10231, and two isolates, Saccharomyces cerevisiae and probiotic strain Saccharomyces boulardii.
The bacterial suspensions were prepared using the direct colony method. The turbidity of the initial suspension was adjusted using a densitometer (DEN-1, BioSan, Latvia). When adjusted to the turbidity of the 0.5 McFarland standard, the bacterial suspension contains approximately 10^8 colony-forming units (CFU)/mL, and the yeast suspension contains approximately 10^6 CFU/mL. For the experiment, the initial suspension was further diluted at a 1:100 ratio in a sterile 0.85% saline solution.
The antimicrobial activity was assessed by determining the minimum inhibitory concentrations (MICs) and minimum microbicidal concentrations (MMCs) using the microdilution plate method with resazurin (Alfa Aesar GmbH & Co. (KG, Karlsruhe, Germany)). For this, 96-well plates were prepared by adding 100 μL of Mueller Hinton broth (Torlak, Belgrade, Serbia) for bacterial tests and Sabouraud broth (Torlak, Belgrade, Serbia) for yeast into each well. The tested PCH-1 and PCH-2 were dissolved in 10% dimethyl sulfoxide (DMSO) and then diluted into sterile distilled water. A 100 μL sample from the stock solution of the tested compound was then added to the first row of the plate, followed by twofold serial dilutions using a multichannel pipette. This produced a concentration range from 2.69 to 0.0025 µmol/L. The method is described in detail in the reported paper.
Each test setup included growth control and sterility control. […] Minimum microbicidal concentrations (MMCs) were determined as described in detail in the reported paper.

Structure (SMILES) | inhibition at 25 µM [1] | inhibition at 30 µM [1] | inhibition at 40 µM [1] | inhibition at 50 µM [1] | inhibition at 60 µM ([1]; 60 µM) | inhibition at 100 µM [1] | IC50 [1] | MMC (S. aureus (isolate)) | MIC (S. aureus (isolate)) | inhibition at 20 µM ([1]; 20 µM)
C/C(NNC(=O)c1ccc(O)c(O)c1O)=C1\C(=O)Oc2ccccc2C1=O [PCH-1, (E)-N′-(1-(2,4-dioxochroman-3-ylidene)ethyl)-2,3,4-trihydroxybenzohydrazide] | 32.8 ± 2.4% | 36.8 ± 2.4% | 51.4 ± 1.8% | 65.1 ± 2% | 84.9 ± 0.1% | 96.1 ± 0.7% | 38.1 µM | 2.70 mM | 2700 µM (≈ 1000 µg/mL) | –
C/C(NNC(=O)c1cc(O)c(O)c(O)c1)=C1\C(=O)Oc2ccccc2C1=O [PCH-2, (E)-N′-(1-(2,4-dioxochroman-3-ylidene)ethyl)-3,4,5-trihydroxybenzohydrazide] | 38.9 ± 3.1% | 41.9 ± 1.4% | 67 ± 0.9% | 71.7 ± 2.2% | – | 95.2 ± 1% | 34.1 µM | 1.35 mM | 1350 µM (≈ 500 µg/mL) | 20.7 ± 2.7%
